Literature values, collected in patent US7179253B2, “Method of tattoo removal” (3M Innovative Properties Company, priority 2003, dated 2007).

System: tattoo ink pigments in tattooed regions
Settings: guinea pigs; topical 5% cream started within six hours of tattoo application, continued for seven days

Question: With `CC(C)Cn1cnc2c(N)nc3ccccc3c21` [imiquimod, 1-(2-methylpropyl)-1H-imidazo[4,5-c]quinolin-4-amine] as the compound, how does the “visible tattoo pigment in the tattooed regions at the conclusion of the treatment period” value read?
Answer: no pigment of any color was visible
